Laboratory results as given in ChEMBL document CHEMBL1201861, “Genomics of Drug Sensitity in Cancer screening data, Wellcome Trust Sanger Institute”.

Legend:
Experiment in all cases: cells
Conditions in all cases: Homo sapiens
NB6 = format: functional, cell-based
Description: SANGER: Inhibition of human NB6 cell growth in a cell viability assay.

MOLT-16 = format: functional, cell-based;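 further: growth inhibition of human MOLT-16 cells, read out with a cell viability assay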
Description: SANGER: Inhibition of human MOLT-16 cell growth in a cell viability assay.

HCE-4 = format: functional, cell-based;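 further: cell viability assay measuring inhibition of growth in the human HCE-4 cell line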
Description: SANGER: Inhibition of human HCE-4 cell growth in a cell viability assay.

697 = format: functional, cell-based
Description: SANGER: Inhibition of human 697 cell growth in a cell viability assay.

TE-1 = format: functional, cell-based;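 further: growth inhibition of the human TE-1 cell line, read out with a cell viability assay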
Description: SANGER: Inhibition of human TE-1 cell growth in a cell viability assay.

TE-5 = format: functional, cell-based;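 further: inhibition of cell growth, read out by a cell viability assay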
Description: SANGER: Inhibition of human TE-5 cell growth in a cell viability assay.

NCI-H1838 = format: functional, cell-based;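 further: growth inhibition of NCI-H1838 cells, determined with a cell viability readout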
Description: SANGER: Inhibition of human NCI-H1838 cell growth in a cell viability assay.

NCI-H23 = format: functional, cell-based;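 further: cell viability assay measuring growth inhibition of NCI-H23 cells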
Description: SANGER: Inhibition of human NCI-H23 cell growth in a cell viability assay.

SW684 = format: functional, cell-based;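 further: growth inhibition of human SW684 cells, measured by a cell viability assay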
Description: SANGER: Inhibition of human SW684 cell growth in a cell viability assay.

GOTO = format: functional, cell-based;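 further: growth inhibition of GOTO cells, read out by a cell viability assay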
Description: SANGER: Inhibition of human GOTO cell growth in a cell viability assay.

U-87 MG = format: functional, cell-based, U-87MG ATCC;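 further: growth inhibition of the cells measured with a viability assay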
Description: SANGER: Inhibition of human U-87-MG cell growth in a cell viability assay.

MHH-NB-11 = format: functional, cell-based;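 further: growth inhibition of human MHH-NB-11 cells, read out by a cell viability assay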
Description: SANGER: Inhibition of human MHH-NB-11 cell growth in a cell viability assay.

LXF-289 cell line = format: functional, cell-based
Description: SANGER: Inhibition of human LXF-289 cell growth in a cell viability assay.

BE-13 = format: functional, cell-based;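 further: growth inhibition of human BE-13 cells, measured with a cell viability assay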
Description: SANGER: Inhibition of human BE-13 cell growth in a cell viability assay.

SCH = format: functional, cell-based;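 further: growth inhibition of human SCH cells, read out in a cell viability assay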
Description: SANGER: Inhibition of human SCH cell growth in a cell viability assay.

BV-173 = format: functional, cell-based
Description: SANGER: Inhibition of human BV-173 cell growth in a cell viability assay.

KP-N-YS = format: functional, cell-based;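 further: cell viability assay measuring inhibition of cell line growth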
Description: SANGER: Inhibition of human KP-N-YS cell growth in a cell viability assay.

ES7 = format: functional, cell-based;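 further: growth inhibition of cultured human ES7 cells, read out as cell viability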
Description: SANGER: Inhibition of human ES7 cell growth in a cell viability assay.

IST-MEL1 = format: functional, cell-based;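 further: growth inhibition of the cell line, read out with a cell viability assay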
Description: SANGER: Inhibition of human IST-MEL1 cell growth in a cell viability assay.

MMAC-SF = format: functional, cell-based;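 further: growth inhibition of human MMAC-SF cells, read out with a cell viability assay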
Description: SANGER: Inhibition of human MMAC-SF cell growth in a cell viability assay.

NCI-H510A = format: functional, cell-based;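 further: growth inhibition of NCI-H510A cells, read out with a cell viability assay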
Description: SANGER: Inhibition of human NCI-H510A cell growth in a cell viability assay.

SK-NEP-1 = format: functional, cell-based;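 further: growth inhibition of human SK-NEP-1 cells, read out by a cell viability assay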
Description: SANGER: Inhibition of human SK-NEP-1 cell growth in a cell viability assay.

PSN1 = format: functional, cell-based;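 further: suppression of growth of human PSN1 cells, read out by a cell viability assay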
Description: SANGER: Inhibition of human PSN1 cell growth in a cell viability assay.

KG-1 = format: functional, cell-based;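 further: growth inhibition of KG-1 cells, read out by a cell viability assay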
Description: SANGER: Inhibition of human KG-1 cell growth in a cell viability assay.

ACN = format: functional, cell-based;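 further: growth inhibition of the human ACN cell line, read out via cell viability testing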
Description: SANGER: Inhibition of human ACN cell growth in a cell viability assay.

SK-MEL-2 = format: functional, cell-based;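 further: growth inhibition of human SK-MEL-2 cells measured with a cell viability assay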
Description: SANGER: Inhibition of human SK-MEL-2 cell growth in a cell viability assay.

NCI-H209 = format: functional, cell-based;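 further: growth inhibition of human NCI-H209 cells, measured by a cell viability assay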
Description: SANGER: Inhibition of human NCI-H209 cell growth in a cell viability assay.

GCIY = format: functional, cell-based;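 further: growth inhibition of the human GCIY cell line, read out by a cell viability assay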
Description: SANGER: Inhibition of human GCIY cell growth in a cell viability assay.

D-263MG = format: functional, cell-based
Description: SANGER: Inhibition of human D-263MG cell growth in a cell viability assay.

P30-OHK = format: functional, cell-based;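 further: growth inhibition of the P30-OHK cell line, read out with a cell viability assay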
Description: SANGER: Inhibition of human P30-OHK cell growth in a cell viability assay.

MS-1 = format: functional, cell-based;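 further: growth inhibition of MS-1 cells, read out by cell viability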
Description: SANGER: Inhibition of human MS-1 cell growth in a cell viability assay.

RPMI-8226 = format: functional, cell-based
Description: SANGER: Inhibition of human RPMI-8226 cell growth in a cell viability assay.

Ramos-2G6-4C10 = format: functional, cell-based;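 further: growth inhibition of the cell line, measured by a cell viability read-out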
Description: SANGER: Inhibition of human Ramos-2G6-4C10 cell growth in a cell viability assay.

JVM-3 = format: functional, cell-based;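 further: growth inhibition of human JVM-3 cells, read out with a cell viability assay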
Description: SANGER: Inhibition of human JVM-3 cell growth in a cell viability assay.

SW982 = format: functional, cell-based;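 further: growth inhibition of SW982 cells, read out with a cell viability assay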
Description: SANGER: Inhibition of human SW982 cell growth in a cell viability assay.

SH-4 = format: functional, cell-based;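 further: growth inhibition of SH-4 cells, read out with a cell viability assay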
Description: SANGER: Inhibition of human SH-4 cell growth in a cell viability assay.

IST-SL1 = format: functional, cell-based;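 further: growth inhibition of human IST-SL1 cells, read out with a cell viability assay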
Description: SANGER: Inhibition of human IST-SL1 cell growth in a cell viability assay.

NH-12 = format: functional, cell-based;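 further: growth inhibition of NH-12 cells, read out with a cell viability assay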
Description: SANGER: Inhibition of human NH-12 cell growth in a cell viability assay.

RCC10RGB = format: functional, cell-based;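 further: growth inhibition of human RCC10RGB cells, read out by a cell viability assay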
Description: SANGER: Inhibition of human RCC10RGB cell growth in a cell viability assay.

NCI-H2126 = format: functional, cell-based;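 further: growth inhibition of the cancer cell line, determined with a cell viability readout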
Description: SANGER: Inhibition of human NCI-H2126 cell growth in a cell viability assay.

COLO-829 = format: functional, cell-based
Description: SANGER: Inhibition of human COLO-829 cell growth in a cell viability assay.

NB69 = format: functional, cell-based;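 further: growth inhibition of NB69 cells, determined by a cell viability assay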
Description: SANGER: Inhibition of human NB69 cell growth in a cell viability assay.

BB65-RCC = format: functional, cell-based;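 further: growth inhibition of the cell line, measured with a cell viability assay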
Description: SANGER: Inhibition of human BB65-RCC cell growth in a cell viability assay.

HAL-01 = format: functional, cell-based;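 further: growth inhibition of human HAL-01 cells, read out with a cell viability assay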
Description: SANGER: Inhibition of human HAL-01 cell growth in a cell viability assay.

KS-1 = format: functional, cell-based;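 further: growth inhibition of KS-1 cells, read out with a cell viability assay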
Description: SANGER: Inhibition of human KS-1 cell growth in a cell viability assay.

HT = format: functional, cell-based
Description: SANGER: Inhibition of human HT cell growth in a cell viability assay.

NCI-H526 = format: functional, cell-based;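 further: growth inhibition of the human NCI-H526 cell line, measured by a cell viability assay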
Description: SANGER: Inhibition of human NCI-H526 cell growth in a cell viability assay.

LB771-HNC = format: functional, cell-based;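 further: growth inhibition of LB771-HNC human cells, read out with a cell viability assay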
Description: SANGER: Inhibition of human LB771-HNC cell growth in a cell viability assay.

NCI-H1092 = format: functional, cell-based;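 further: cell growth inhibition measured with a cell viability assay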
Description: SANGER: Inhibition of human NCI-H1092 cell growth in a cell viability assay.

KLE = format: functional, cell-based;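 further: growth inhibition of human KLE cells, read out with a cell viability assay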
Description: SANGER: Inhibition of human KLE cell growth in a cell viability assay.

LS-411N = format: functional, cell-based
SW872 = format: functional, cell-based;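 further: growth inhibition of SW872 cells, read out by a viability assay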
Description: SANGER: Inhibition of human SW872 cell growth in a cell viability assay.

DJM-1 = format: functional, cell-based;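 further: growth inhibition of human DJM-1 cells, read out by a cell viability assay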
Description: SANGER: Inhibition of human DJM-1 cell growth in a cell viability assay.

NOS-1 = format: functional, cell-based;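 further: growth inhibition of the human NOS-1 cell line, read out with a cell viability assay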
Description: SANGER: Inhibition of human NOS-1 cell growth in a cell viability assay.

KM-H2 = format: functional, cell-based;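 further: growth inhibition of KM-H2 cells, read out by a cell viability assay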
Description: SANGER: Inhibition of human KM-H2 cell growth in a cell viability assay.

EKVX = format: functional, cell-based;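 further: growth inhibition of human EKVX cells, read out with a cell viability assay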
Description: SANGER: Inhibition of human EKVX cell growth in a cell viability assay.

SCC-15 = format: functional, cell-based;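 further: growth inhibition of SCC-15 cells, read out with a cell viability assay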
Description: SANGER: Inhibition of human SCC-15 cell growth in a cell viability assay.

NKM-1 = format: functional, cell-based
Description: SANGER: Inhibition of human NKM-1 cell growth in a cell viability assay.

EW-18 = format: functional, cell-based
Description: SANGER: Inhibition of human EW-18 cell growth in a cell viability assay.

COLO-684 = format: functional, cell-based
Description: SANGER: Inhibition of human COLO-684 cell growth in a cell viability assay.

MZ2-MEL = format: functional, cell-based
Description: SANGER: Inhibition of human MZ2-MEL cell growth in a cell viability assay.

KU812 cell line = format: functional, cell-based
Description: SANGER: Inhibition of human KU812 cell growth in a cell viability assay.

K562 = format: functional, cell-based
Description: SANGER: Inhibition of human K-562 cell growth in a cell viability assay.

NCI-H1155 = format: functional, cell-based
Description: SANGER: Inhibition of human NCI-H1155 cell growth in a cell viability assay.

LB831-BLC = format: functional, cell-based
Description: SANGER: Inhibition of human LB831-BLC cell growth in a cell viability assay.

8-MG-BA = format: functional, cell-based
Description: SANGER: Inhibition of human 8-MG-BA cell growth in a cell viability assay.

Measured: IC50

C[C@]1(c2nc3c(C(N)=O)cccc3[nH]2)CCCN1 [VELIPARIB]
> 5 µM: all assays above
